In patent publication US4820695A, “C-20-dihydro-deoxy-(cyclic amino)-derivatives of macrolide antibiotics” (priority 1987, dated 1989):
In brackets after ≈: the same amount, converted by molar mass. Where two headings read alike, the source gives them in different places.

What was measured:
[1] = test system: Staphylococcus aureus V41; experiment: MIC, standard agar-dilution assay (Table IX); assay type: cell-based; conditions: Staphylococcus aureus V41, Penicillin-resistant strain, read-out: MIC
[2] = test system: Staphylococcus aureus X400; experiment: MIC, standard agar-dilution assay (Table IX); assay type: cell-based; conditions: Staphylococcus aureus X400, Methicillin-resistant strain, read-out: MIC
[3] = test system: Streptococcus pneumoniae Park I; experiment: MIC, standard agar-dilution assay (Table IX); assay type: cell-based; conditions: Streptococcus pneumoniae Park I; agar-dilution; read-out: MIC
Escherichia coli TEM = experiment: MIC, standard agar-dilution assay (Table IX); assay type: cell-based; conditions: read-out: MIC
[4] = test system: Haemophilus influenzae C.L.; experiment: MIC, standard agar-dilution assay (Table IX); assay type: cell-based; conditions: Ampicillin-sensitive strain, read-out: MIC
[5] = test system: Streptococcus Group D 2041; experiment: MIC, standard agar-dilution assay (Table IX); assay type: cell-based; conditions: GROUPD2041, read-out: MIC
Staphyloccus aureus X1.1 = experiment: MIC, standard agar-dilution assay (Table IX); assay type: cell-based, Staphylococcus aureus; conditions: Staphylococcus aureus, read-out: MIC
[6] = test system: Streptococcus pyogenes C203; experiment: ED50 in mice experimentally infected with S. pyogenes C203 (Table XI); assay type: in vivo; conditions: Streptococcus pyogenes, doses given 1 and 4 hours postinfection, read-out: ED50
Procedure, shortened: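 Protective ED50 (mg/kg × 2) was determined as the dose sparing half the animals. Test compound was given twice, at 1 and 4 hours after experimental S. pyogenes C203 infection of mice.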

[7] = test system: Staphylococcus aureus S13E; experiment: MIC, standard agar-dilution assay (Table IX); assay type: cell-based; conditions: Staphylococcus aureus, S13E
[8] = test system: Haemophilus influenzae 76; experiment: MIC, standard agar-dilution assay (Table IX); assay type: cell-based; conditions: Haemophilus influenzae 76, Ampicillin-resistant strain, read-out: MIC
Escherichia coli EC14 = experiment: MIC, standard agar-dilution assay (Table IX); assay type: cell-based; conditions: read-out: MIC
Escherichia coli N10 = experiment: MIC, standard agar-dilution assay (Table IX); assay type: cell-based; conditions: read-out: MIC
Pasteurella multocida [9] = experiment: Pasteurella infection in one-day-old chicks, subcutaneous administration (Table XII); assay type: in vivo; conditions: Administered subcutaneously, 30 mg/kg × 2, 1 and 4 hours post-challenge
Procedure, shortened: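 Treatment was 30 mg/kg s.c., given twice (1 and 4 h after infection). The infection itself was induced in day-old chicks by s.c. injection of 0.1 ml of avian Pasteurella multocida culture (20-h tryptose broth, diluted 10^-4).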

[10] = test system: Staphylococcus epidermidis 222; experiment: MIC, standard agar-dilution assay (Table IX); assay type: cell-based; conditions: read-out: MIC
Klebsiella X26 = experiment: MIC, standard agar-dilution assay (Table IX); assay type: cell-based; conditions: read-out: MIC
[11] = Titratable groups in 66% aqueous DMF (Tables XIV-XVI); assay type: physicochemical
Excerpt: ^c Run in 66% aqueous DMF
^d Run in 66% aqueous DMF

[12] = test system: Streptococcus pyogenes C203; experiment: MIC, standard agar-dilution assay (Table IX); assay type: cell-based; conditions: read-out: MIC
[13] = test system: Staphylococcus epidermidis EPI1; experiment: MIC, standard agar-dilution assay (Table IX); assay type: cell-based; conditions: Staphylococcus epidermidis EPI1; agar-dilution; read-out: MIC
[14] = test system: Pasteurella multocida 17E; experiment: MIC, broth-dilution microtiter test (Table X); assay type: cell-based; conditions: Bovine isolate, read-out: MIC
Excerpt: (§1) The MIC's in Table X were obtained using conventional broth-dilution microtiter tests.

[15] = test system: Pasteurella hemolytica 22C; experiment: MIC, broth-dilution microtiter test (Table X); assay type: cell-based; conditions: read-out: MIC
Excerpt: as §1

Mycoplasma synoviae 40A = experiment: MIC, broth-dilution microtiter test (Table X); assay type: cell-based; conditions: Mycoplasmopsis synoviae, read-out: MIC
Excerpt: as §1

Mycoplasma hyorhinis 29E = experiment: MIC, broth-dilution microtiter test (Table X); assay type: cell-based; conditions: read-out: MIC
Excerpt: as §1

[16] = test system: Mycoplasma gallisepticum 29C; experiment: MIC, broth-dilution microtiter test (Table X); assay type: cell-based; conditions: Mycoplasmoides gallisepticum, read-out: MIC
Excerpt: as §1

[17] = test system: Pasteurella multocida 60A; experiment: MIC, broth-dilution microtiter test (Table X); assay type: cell-based; conditions: Avian isolate, read-out: MIC
Excerpt: as §1

Streptococcus sp. 19F = experiment: MIC, broth-dilution microtiter test (Table X); assay type: cell-based; conditions: read-out: MIC
Excerpt: as §1

Staphylococcus aureus = experiment: MIC, broth-dilution microtiter test (Table X); assay type: cell-based; conditions: read-out: MIC
Excerpt: as §1

[18] = test system: Mycoplasma hyopneumoniae S5972; experiment: MIC, broth-dilution microtiter test (Table X); assay type: cell-based; conditions: Mesomycoplasma hyopneumoniae, read-out: MIC
Excerpt: as §1

Pasteurella multocida [19] = experiment: Pasteurella infection in one-day-old chicks, medicated drinking water (Table XIII); assay type: in vivo; conditions: Administered in the available drinking water at 2 g/gal
Method: Many of the C-20 modified derivatives of this invention have also shown in vivo antibacterial activity against infections induced by gram-negative bacteria. Tables XII and XIII summarize the results of tests in which illustrative compounds were evaluated against a Pasteurella infection in one-day-old chicks. The compounds were administered parenterally or orally after challenge of the chicks with Pasteurella multocida (0.1 ml of a 10^-4 dilution of a twenty-hour tryptose broth culture of an avian P. multocida given subcutaneously). In these tests, unless indicated otherwise, all non-medicated infected chicks died within 24 hours of Pasteurella challenge. In the tests summarized in Table XII, the compounds were administered by subcutaneous injection at a dosage of 30 mg/kg, 1 and 4 hours post-challenge of the chicks with P. multocida. In the tests summarized in Table XIII the compounds were administered in medicated drinking water (at a level of 2 g/gal) available from 4 to 20 hours prior to challenge of the chicks with P. multocida and during the 3 -day test period.
^a Administered in the available drinking water at a concentration of […]

[20] = test system: Streptococcus Group D X66; experiment: MIC, standard agar-dilution assay (Table IX); assay type: cell-based; conditions: read-out: MIC
[21] = Titratable groups (first value)

| SMILES | MIC [1] | MIC [2] | MIC [3] | MIC (Escherichia coli TEM) | MIC [4] | MIC [5] | MIC (Staphyloccus aureus X1.1) | ED50 ([6]; C203, Oral) | ED50 ([6]; C203, sc, Subcutaneous) | MIC [7] | MIC [8] | MIC (Escherichia coli EC14) | MIC (Escherichia coli N10) | Number of Deaths/Number Treated (Pasteurella multocida [9]) | MIC [10] | MIC (Klebsiella X26) | pKa ([11]; Titratable groups) | pKa [11, 21] | MIC [12] | MIC [13] | further results |
| --- | --- | --- | --- | --- | --- | --- | --- | --- | --- | --- | --- | --- | --- | --- | --- | --- | --- | --- | --- | --- | --- |
| CCC1OC(=O)CC(O)C(C)C(OC2OC(C)C(O)C(N(C)C)C2O)C(CCN2CCCC23CCCCC3)CC(C)C(=O)C=CC(C)=CC1COC1OC(C)C(O)C(OC)C1OC (centres unmarked) [Compound D19, 20-DH-DO-20-[1-Azaspiro[4.5]decan-1-yl]desmycosin] | 1 µg/mL (≈ 1.12 µM) | 1 µg/mL (≈ 1.12 µM) | 0.25 µg/mL (≈ 0.279 µM) | 32 µg/mL (≈ 35.7 µM) | 16 µg/mL (≈ 17.9 µM) | 16 µg/mL (≈ 17.9 µM) | 1 µg/mL (≈ 1.12 µM) | 46 mg/kg | 2.9 mg/kg | 1 µg/mL (≈ 1.12 µM) | 16 µg/mL (≈ 17.9 µM) | 128 µg/mL (≈ 143 µM) | 128 µg/mL (≈ 143 µM) | 0/10 | 0.25 µg/mL (≈ 0.279 µM) | 32 µg/mL (≈ 35.7 µM) | 9.8 | 7.9 | 0.5 µg/mL (≈ 0.559 µM) | 1 µg/mL (≈ 1.12 µM) | MIC [14]: 3.12 µg/mL (≈ 3.49 µM); MIC [15]: 3.12 µg/mL (≈ 3.49 µM); MIC (Mycoplasma synoviae 40A): 0.39 µg/mL (≈ 0.436 µM); MIC (Mycoplasma hyorhinis 29E): > 50 µg/mL; MIC [16]: 1.56 µg/mL (≈ 1.74 µM); MIC [17]: 3.12 µg/mL (≈ 3.49 µM); MIC (Streptococcus sp. 19F): 3.12 µg/mL (≈ 3.49 µM); MIC (Staphylococcus aureus): 0.78 µg/mL (≈ 0.871 µM); MIC [18]: 3.12 µg/mL (≈ 3.49 µM); Number of Deaths/Number Treated (Pasteurella multocida [19]): 3/10; MIC [20]: 16 µg/mL (≈ 17.9 µM) |
| CCC1OC(=O)CC(O)C(C)C(OC2OC(C)C(O)C(N(C)C)C2O)C(CCN2CCCCCCCC2)CC(C)C(=O)C=CC(C)=CC1COC1OC(C)C(O)C(OC)C1OC (centres unmarked) [Compound D7, 20-DH-DO-20-(octahydro-1H-azonin-1-yl)desmycosin] | 0.5 µg/mL (≈ 0.566 µM) | 0.5 µg/mL (≈ 0.566 µM) | 0.5 µg/mL (≈ 0.566 µM) | 16 µg/mL (≈ 18.1 µM) | 16 µg/mL (≈ 18.1 µM) | 8 µg/mL (≈ 9.06 µM) | 0.5 µg/mL (≈ 0.566 µM) | 12 mg/kg | 1.6 mg/kg | 0.5 µg/mL (≈ 0.566 µM) | 16 µg/mL (≈ 18.1 µM) | 64 µg/mL (≈ 72.5 µM) | 64 µg/mL (≈ 72.5 µM) | 3/10 | 0.25 µg/mL (≈ 0.283 µM) | > 128 µg/mL | 9 | 7.9 | 0.06 µg/mL (≈ 0.0679 µM) | 0.5 µg/mL (≈ 0.566 µM) | MIC [14]: 6.25 µg/mL (≈ 7.08 µM); MIC [15]: 3.12 µg/mL (≈ 3.53 µM); MIC (Mycoplasma synoviae 40A): 0.39 µg/mL (≈ 0.442 µM); MIC (Mycoplasma hyorhinis 29E): 25 µg/mL (≈ 28.3 µM); MIC [16]: 0.39 µg/mL (≈ 0.442 µM); MIC [17]: 6.25 µg/mL (≈ 7.08 µM); MIC (Streptococcus sp. 19F): 3.12 µg/mL (≈ 3.53 µM); MIC (Staphylococcus aureus): 1.56 µg/mL (≈ 1.77 µM); MIC [18]: 1.56 µg/mL (≈ 1.77 µM); Number of Deaths/Number Treated (Pasteurella multocida [19]): 2/10; MIC [20]: 4 µg/mL (≈ 4.53 µM) |
